Measurements reported in ChEMBL document CHEMBL1201862, “PubChem BioAssay data set” (2004).
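Growth conditions: 96-well plates. Treatment: test compound, 48 hours, 5 concentrations. Analysis: linear interpolation between bracketing concentrations; unreached endpoints set to highest concentration. The concentration for 50% growth inhibition is given as GI50.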 The source made the active and inactive calls. No stated cut-off is given here; in the data, active = GI50 up to about 1.1 µM and inactive = higher.

What was measured:
Test in all cases: NCI tumour cell line growth inhibition, 48 h
[1] = system: SK-MEL-5
[2] = system: UACC-62
[3] = system: HOP-62
[4] = system: DLD-1
[5] = system: KM12
[6] = system: HL-60
[7] = system: SW-620
[8] = system: Malme-3M
[9] = system: OVCAR-8
[10] = system: NCI-H226
[11] = system: DMS-114
[12] = system: T47D
[13] = system: SF-268
[14] = system: SNB-78
[15] = system: SR
[16] = system: MDA-N
[17] = system: U-251
[18] = system: RPMI-8226
[19] = system: MDA-MB-231
[20] = system: KM-20L2
[21] = system: Hs-578T
[22] = system: SF-295
[23] = system: TK-10
[24] = system: HOP-92
[25] = system: SNB-75
[26] = system: HOP-18
[27] = system: LOX IMVI
[28] = system: DU-145
[29] = system: M19-MEL
[30] = system: OVCAR-4
[31] = system: SK-OV-3
[32] = system: SK-MEL-2
[33] = system: OVCAR-5
[34] = system: K562
[35] = system: 786-0
[36] = system: OVCAR-3
[37] = system: COLO 205
[38] = system: SNB-19
[39] = system: SK-MEL-28
[40] = system: HCT-116
[41] = system: IGROV-1
[42] = system: PC-3
[43] = system: RXF 631
[44] = system: SN12C
[45] = system: M14
[46] = system: MCF7
[47] = system: NCI-H522
[48] = system: SF-539
[49] = system: CCRF-CEM
[50] = system: BT-549
[51] = system: NCI/ADR-RES
[52] = system: DMS-273
[53] = system: HT-29
[54] = system: EKVX
[55] = system: NCI-H23
[56] = system: UO-31
[57] = system: MOLT-4
[58] = system: NCI-H460
[59] = system: A498
[60] = system: LXFL 529
[61] = system: RXF 393
[62] = system: HCC 2998
[63] = system: MDA-MB-435
[64] = system: HCT-15
[65] = system: A549
[66] = system: ACHN
[67] = system: UACC-257
[68] = system: CAKI-1
[69] = system: XF498

## O=C(/C=C/c1ccc(OCC(=O)N2CCN(c3ccccc3)CC2)cc1)c1ccc(Cl)cc1
[1]
  GI50: 54.2 µM (inactive)
[2]
  GI50: 61.8 µM (inactive)
[3]
  GI50: 21.7 µM (inactive)
[4]
  GI50: > 100 µM (inactive)
[5]
  GI50: > 100 µM (inactive)
[6]
  GI50: 98.2 µM (inactive)
[7]
  GI50: > 100 µM (inactive)
[8]
  GI50: 57.3 µM (inactive)
[9]
  GI50: 45.9 µM (inactive)
[10]
  GI50: 50.8 µM (inactive)
[11]
  GI50: > 65.3 µM (inactive)
[12]
  GI50: 52.7 µM (inactive)
[13]
  GI50: 26.2 µM (inactive)
[14]
  GI50: 18.6 µM (inactive)
[15]
  GI50: > 100 µM (inactive)
[16]
  GI50: > 100 µM (inactive)
[17]
  GI50: 15.7 µM (inactive)
[18]
  GI50: > 100 µM (inactive)
[19]
  GI50: 25.5 µM (inactive)
[20]
  GI50: > 100 µM (inactive)
[21]
  GI50: 21.7 µM (inactive)
[22]
  GI50: 18.6 µM (inactive)
[23]
  GI50: 31.6 µM (inactive)
[24]
  GI50: 13.3 µM (inactive)
[25]
  GI50: 12 µM (inactive)
[26]
  GI50: > 100 µM (inactive)
[27]
  GI50: > 100 µM (inactive)
[28]
  GI50: 51.2 µM (inactive)
[29]
  GI50: > 100 µM (inactive)
[30]
  GI50: 32.6 µM (inactive)
[31]
  GI50: 27.5 µM (inactive)
[32]
  GI50: 36.5 µM (inactive)
[33]
  GI50: > 100 µM (inactive)
[34]
  GI50: > 100 µM (inactive)
[35]
  GI50: 22 µM (inactive)
[36]
  GI50: > 92 µM (inactive)
[37]
  GI50: > 100 µM (inactive)
[38]
  GI50: 18.6 µM (inactive)
[39]
  GI50: > 100 µM (inactive)
[40]
  GI50: 54.5 µM (inactive)
[41]
  GI50: 38.6 µM (inactive)
[42]
  GI50: > 91.8 µM (inactive)
[43]
  GI50: 34.8 µM (inactive)
[44]
  GI50: 89.5 µM (inactive)
[45]
  GI50: 84.7 µM (inactive)
[46]
  GI50: > 100 µM (inactive)
[47]
  GI50: 49.3 µM (inactive)
[48]
  GI50: 19 µM (inactive)
[49]
  GI50: > 100 µM (inactive)
[50]
  GI50: 43.4 µM (inactive)
[51]
  GI50: 59.2 µM (inactive)
[52]
  GI50: 55 µM (inactive)
[53]
  GI50: > 100 µM (inactive)
[54]
  GI50: > 60.7 µM (inactive)
[55]
  GI50: 50.4 µM (inactive)
[56]
  GI50: > 71 µM (inactive)
[57]
  GI50: > 100 µM (inactive)
[58]
  GI50: > 94.2 µM (inactive)
[59]
  GI50: 23.4 µM (inactive)
[60]
  GI50: > 92 µM (inactive)
[61]
  GI50: 21.9 µM (inactive)
[62]
  GI50: > 100 µM (inactive)
[63]
  GI50: > 100 µM (inactive)
[64]
  GI50: > 100 µM
[65]
  GI50: 38.7 µM (inactive)
[66]
  GI50: 22.4 µM (inactive)
[67]
  GI50: > 72.4 µM (inactive)
[68]
  GI50: 78.5 µM (inactive)

## C/C(CC(=O)Nc1ccc(Cl)cc1)=N\NC(=O)C[n+]1ccccc1
[1]
  GI50: > 100 µM (inactive)
[2]
  GI50: > 100 µM (inactive)
[3]
  GI50: > 100 µM (inactive)
[4]
  GI50: > 100 µM (inactive)
[5]
  GI50: > 100 µM (inactive)
[6]
  GI50: > 100 µM (inactive)
[7]
  GI50: > 100 µM (inactive)
[8]
  GI50: > 100 µM (inactive)
[9]
  GI50: > 100 µM (inactive)
[10]
  GI50: > 100 µM (inactive)
[11]
  GI50: > 100 µM (inactive)
[13]
  GI50: > 100 µM (inactive)
[14]
  GI50: > 100 µM (inactive)
[17]
  GI50: > 100 µM (inactive)
[18]
  GI50: > 100 µM (inactive)
[20]
  GI50: > 100 µM (inactive)
[69]
  GI50: > 100 µM (inactive)
[22]
  GI50: > 100 µM (inactive)
[23]
  GI50: > 100 µM (inactive)
[24]
  GI50: > 100 µM (inactive)
[25]
  GI50: > 100 µM (inactive)
[27]
  GI50: > 100 µM (inactive)
[31]
  GI50: > 100 µM (inactive)
[32]
  GI50: > 100 µM (inactive)
[33]
  GI50: > 100 µM (inactive)
[34]
  GI50: > 100 µM (inactive)
[35]
  GI50: > 100 µM (inactive)
[36]
  GI50: > 100 µM (inactive)
[37]
  GI50: > 100 µM (inactive)
[39]
  GI50: > 100 µM (inactive)
[40]
  GI50: > 100 µM (inactive)
[41]
  GI50: > 100 µM (inactive)
[43]
  GI50: > 100 µM (inactive)
[45]
  GI50: > 100 µM (inactive)
[47]
  GI50: 75 µM (inactive)
[48]
  GI50: > 100 µM (inactive)
[49]
  GI50: > 100 µM (inactive)
[52]
  GI50: > 100 µM (inactive)
[53]
  GI50: > 100 µM (inactive)
[54]
  GI50: > 100 µM (inactive)
[55]
  GI50: > 100 µM (inactive)
[56]
  GI50: > 100 µM (inactive)
[57]
  GI50: > 100 µM (inactive)
[58]
  GI50: > 100 µM (inactive)
[60]
  GI50: > 100 µM (inactive)
[61]
  GI50: > 100 µM (inactive)
[62]
  GI50: > 100 µM (inactive)
[65]
  GI50: > 100 µM (inactive)
[66]
  GI50: > 100 µM (inactive)
[67]
  GI50: > 100 µM (inactive)
